Data set [1] deals with Leukemia subpanel tumor cell lines. Kind of data set: In vitro anticancer screening, five concentration levels, leukemia subpanel. It is filed as cell-based, human. Here is the method:
(§1) Anticancer evaluation of the newly synthesized compound was performed by a screening in vitro with 60 human cell lines for primary anticancer screening, representing leukemia, melanoma and cancers of the lung, colon, brain, ovary, breast, prostate and kidney. The screening was a two-stage process, beginning with the evaluation of all compounds against the 60 cell lines at a single-dose of 10 μM. […] Therefore this compound passed on to further evaluation at five concentration levels ranging from 0.01 μM to 100 μM.

For data set [2], the system named is Lung subpanel tumor cell lines. Kind of data set: In vitro anticancer screening, five concentration levels, lung subpanel. It is filed as cell-based, human. On the procedure: as §1
For data set [3], the system named is Colon subpanel tumor cell lines. Put plainly: In vitro anticancer screening, five concentration levels, colon subpanel. It is filed as cell-based, human. On the procedure: as §1
In data set [4] the test system is CNS subpanel tumor cell lines. Kind of data set: In vitro anticancer screening, five concentration levels, CNS subpanel. It is filed as cell-based, human. Here is the method:
as §1

Data set [5] concerns Melanoma subpanel tumor cell lines. Put plainly: In vitro anticancer screening, five concentration levels, melanoma subpanel. It is filed as cell-based, human. On the procedure: as §1
The test system of data set [6] is Ovarian subpanel tumor cell lines. Put plainly: In vitro anticancer screening, five concentration levels, ovarian subpanel. It is filed as cell-based, human. On the procedure:
as §1

In data set [7] the test system is Renal subpanel tumor cell lines. Put plainly: In vitro anticancer screening, five concentration levels, renal subpanel. It is filed as cell-based, human. On the procedure: as §1
For data set [8], the system named is Prostate subpanel tumor cell lines. Kind of data set: In vitro anticancer screening, five concentration levels, prostate subpanel. It is filed as cell-based, human. On the procedure:
as §1

In data set [9] the test system is Breast subpanel tumor cell lines. Put plainly: In vitro anticancer screening, five concentration levels, breast subpanel. It is filed as cell-based, human. Here is the method: as §1
The subject of the next data set is 60 human cell lines. Put plainly: In vitro anticancer screening, full panel. It is filed as cell-based. As to conditions: for GI50: Homo sapiens, read-out: GI50 MG-MID (full panel mean-graph midpoint). On the procedure: as §1
The subject of the next data set is Sprague-Dawley rats. Put plainly: In vivo acute toxicity (LD50). The arrangement: species or system rat. On the procedure: (§2) Adult male Sprague-Dawley rats (180±20 g, body weight), were purchased from the animal house of the National Research Centre, Egypt. They were maintained for 1 week under environmentally controlled conditions (constant temperature, 25-27° C., with 12-hour light/dark cycles) for 1 week prior to starting the experiments. The […] were housed with 10 animals per cage, and were provided with tap water and commercial diets.
Acute toxicity of the target compound was determined in vivo according to previously reported methods in the literature. Briefly, animals were divided into groups of 10 rats each, and administered single intravenous (IV) doses, graded ranging from 0 to 1200 μg/kg, of the synthesized compound. Control animals received vehicle alone (dimethyl sulfoxide, DMSO).
The mortality of the animals was monitored for up to 1 month posttreatment. […] Acute toxicity was considered by the in vivo assay.

Data set [10] deals with DENA-induced liver cancer in rats. Put plainly: Liver function in DENA-induced liver cancer in rats. As to conditions: for ALP / ALT / AST / Bili (total bilirubin): serum, mean ± SE. It is filed as in vivo, rat. On the procedure:
as §2
Diethylnitrosamine (DENA) and carbon tetrachloride (CCl4) were purchased from Sigma-Aldrich Chemical Corp., (St. Louis, Mo., USA). The DENA was dissolved in normal saline and injected as a single dose (200 mg/kg, intraperitoneally, i.p.) to initiate hepatic carcinogenesis. The CCl4 was administered as a single dose (2 ml/kg) by gavage as a 1:1 dilution in corn oil to stimulate liver cell proliferation and regeneration. The aspartate transaminase (AST), alanine transaminase (ALT), alkaline phosphatase (ALP), and total bilirubin (Bili) kits were obtained from BioMérieux (France).
Adult male Sprague-Dawley rats were divided into groups of eight animals each. Group 1 rats (untreated control) were fed a standard diet and given water throughout the experiment. Group 2 rats (treated with DENA) were injected with a single dose of DENA (200 mg/kg, i.p.), and 2 weeks later received a single dose of CCl4 (2 ml/kg) by gavage as 1:1 dilution in corn oil. Group 3 rats (treated with DENA and target compound) consisted of rats that were treated as the rats in Group 2, but also were treated with target compound administered IV at a dose that was 1/10 the LD50, for 10 consecutive days.
At the end of the treatment protocol on day 30 after the last injection, the animals were anesthetized with ether, and blood samples were drawn from the orbital venous plexus. The serum was separated by centrifugation for 5 minutes at 1500 g, and stored at −20° C. until analyzed. This serum was used to determine the liver function by assaying the ALT, AST, and ALP activities and total bilirubin spectrophotometrically according to the manufacturer's instructions using reagent kits obtained from […]. Liver function was measured, comparing results for control rats with results in DENA-treated and in target compound-treated rats. The results were reported as mean±standard error of the mean (SE). Statistical significance was analyzed using a one-way analysis of variance (ANOVA) followed by the Student's t-test, while the differences were considered to be significant at p<0.05.

The test system is the same in data set [11]. Kind of data set: Histopathological examination of rat liver sections. As to conditions: H&E staining. It is filed as in vivo. An excerpt:
For the histopathological examination, the animals were euthanized by decapitation and their livers were rapidly excised, weighed, and washed with saline. Portions of the livers were fixed in 10% formalin in saline, embedded in paraffin wax, serially sectioned, and stained. A standard method of hematoxylin and eosin (H&E) staining was also used.

[12] abbreviates: DENA/CCl4 rats treated IV at 1/10 LD50 for 10 days, day 30 after last injection.
Setting [13] is: rats given DENA 200 mg/kg i.p. then CCl4, no target compound.

SMILES strings stand for the structures. Like-named read-outs stand apart in the source and are kept apart here. Marks after values point to notes of the source that are not given here.

With `COc1ccc(-c2nn(-c3cccc(Cl)c3)cc2/C=C2\C(=N)N(c3ccccc3)N=C2N)cc1` [Compound 2, (4Z)-4-((1-(3-Chlorophenyl)-3-(4-methoxyphenyl)-1H-pyrazol-4-yl)methylene)-4,5-dihydro-5-imino-1-phenyl-1H-pyrazol-3-amine], the “Selectivity ratio, Leukemia” value in [1] came to 5.86. The GI50 was determined as 0.61 µM in data set [1] (Homo sapiens, read-out: Median growth inhibitory concentration GI50, Leukemia); 7.39 µM in [2] (Homo sapiens, read-out: Median growth inhibitory concentration GI50, Lung); 1.25 µM in data set [3] (Homo sapiens, read-out: Median growth inhibitory concentration GI50, Colon); 5.7 µM in [4] (Homo sapiens, read-out: Median growth inhibitory concentration GI50, CNS); 2.83 µM in data set [5] (Homo sapiens, read-out: Median growth inhibitory concentration GI50, Melanoma); 6.11 µM in [6] (Homo sapiens, read-out: Median growth inhibitory concentration GI50, Ovarian). For the same molecule, the GI50 in data set [7] (Homo sapiens, read-out: Median growth inhibitory concentration GI50, Renal) was 5.55 µM; in [8] (Homo sapiens, read-out: Median growth inhibitory concentration GI50, Prostate) it was 0.69 µM; in data set [9] (Homo sapiens, read-out: Median growth inhibitory concentration GI50, Breast), 2.13 µM; in the data set on 60 human cell lines (60 cell) it was 3.59 µM. In [2], the “Selectivity ratio, Lung” value was found to be 0.49. Besides, the “Selectivity ratio, Colon” value in data set [3] is recorded as 2.86. Besides, in data set [4], the “Selectivity ratio, CNS” value was found to be 0.63. For the same molecule, the “Selectivity ratio, Melanoma” value in data set [5] came to 1.27. Also, the “Selectivity ratio, Ovarian” value in data set [6] was found to be 0.59. For the same molecule, in data set [7], the “Selectivity ratio, Renal” value amounted to 0.65. Besides, in [8], the “Selectivity ratio, Prostate” value was 5.19. The “Selectivity ratio, Breast” value in [9] came out at 1.68. The “Growth inhibition, one dose mean graph” value in the data set with 60 human cell lines (single-dose of 10 μM, 60 cell lines) is “significant growth inhibition”. Also, the “Median lethal dose (LD50)” value in the data set with Sprague-Dawley rats (single IV dose, mortality monitored up to 1 month) is 195 μg/kg body weight. Besides, in the data set with Sprague-Dawley rats (single IV doses 0 to 1200 μg/kg), the “Acute toxicity (in words)” value is given as “no marked acute toxicity”. Also, the “AST, ALT and ALP activities and total bilirubin level compared to DENA-treated rats (in words)” value in data set [10] (dose of 1/10 of the LD50) was “substantial normalization”. Further, in [10] (setting [12]), the ALP is on record as 124.00 ± 12.00^b U/L. For the same molecule, in [10] (setting [12]), the ALT was 49.00 ± 4.6^b U/L. In addition, the AST in data set [10] (setting [12]) is recorded as 70.00 ± 7.2^b U/L. Besides, the “Bili (total bilirubin)” value in [10] (setting [12]) is on record as 1.63 ± 0.16^b mg/dl. The “Liver histology (H&E) of DENA-rats treated with target compound” value in data set [11] (listed as target) is on record as “improvement in the hepatic pattern associated with normal hepatic architecture”; in [11] (listed as target compound), “normal hepatic architecture”.

On to `CCN(CC)N=O` [DENA, Diethylnitrosamine, reference compound], for which, in [10] (setting [13]), the ALP is 215.00 ± 15.7^a U/L, the ALT is 95.00 ± 7.0^a U/L, the AST is 110.00 ± 7.8^a U/L and the “Bili (total bilirubin)” value is listed as 2.90 ± 0.20^a mg/dl.

On to `CNC(=O)c1cc(Oc2ccc(NC(=O)Nc3ccc(Cl)c(C(F)(F)F)c3)cc2)ccn1` [Sorafenib, sorafenib, reference compound], for which the GI50 in the data set with 60 human cell lines (full panel, 60 cell lines) was determined as 1.9 µM.

Source of the values: patent US10039749B1, “Substituted pyrazole derivatives” (KING SAUD UNIVERSITY, priority 2018, dated 2018).
